Reference: patent publication US20190125646A1, “ORAL COMPOSITION FOR TOOTH WHITENING PRODUCT, AND KIT COMPRISING SAME” (LG HOUSEHOLD & HEALTH CARE LTD., priority 2013, published 2019)
“Also recorded” adds a separate entry of the source.

Legend:
[1] = Survey evaluation related to irritation (Experimental Example 3); type: in vivo; settings: subjects' own evaluation after use, score 0-3; FIG. 3
Text: After using comparative example 2 and examples 1 and 2, each subject was allowed to evaluate the degree of irritation on a 3-point scale according to the following evaluation criteria.
2: Certainly sensible irritation.
3: Stop using due to irritation

[2] = Brightness variation (Experimental Example 4); settings: gel first agent plus hydrogen peroxide 3.0% patch on stained HAP disk, removed after 1 hour; FIG. 4
Description: Comparative examples 3 through 8 and example 5 were each attached to a stained HAP disk and were removed after 1 hour, and variations relative to initial brightness were measured and were indicated as ΔL.

NCCS(=O)(=O)O [taurine]
degree of irritation (survey, 3-point scale) [1]: significantly reduced

iron chloride
degree of irritation (survey, 3-point scale) [1]: more severe
whitening effect (variation relative to initial brightness, ΔL) [2]: highest tooth whitening effect; also recorded: remarkably superior effect than other metal ions
